Where “and” joins values, the source holds several entries; their conditions need not be identical. Equal entries are not always repeated.
Assay: xn = mol fraction of the nth substance listed

C1CCCCCCC1 + CCCCCCC
Details | viscosity [mPa·s]
308.15 K, 101 kPa, x2 = 0.1897 | 1.125

CCCCC + CCCCCCC
298.15 K, 101.33 kPa
Details | viscosity [mPa·s]
x1 = 0.1046 | 0.3691
x1 = 0.2024 | 0.3579
x1 = 0.3087 | 0.3325
x1 = 0.4077 | 0.3173
x1 = 0.4979 | 0.3004
x1 = 0.5999 | 0.2848
x1 = 0.6624 | 0.2762
x1 = 0.7972 | 0.254
x1 = 0.8929 | 0.242

CCCCCCCCCC + CCCCCCC
Details | viscosity
293.15 K, 100 kPa, x1 = 0.3 | 0.506 mPa·s
293.15 K, 101.33 kPa, x2 = 0.321 | 0.725 mPa·s
293.15 K, 101.33 kPa, x2 = 0.587 | 0.584 mPa·s
293.15 K, 101.33 kPa, x2 = 0.81 | 0.489 mPa·s
294.62 K, 101.3 kPa, x2 = 0.49 | 0.64 mPa·s
298.15 K, 101.33 kPa, x2 = 0.0985 | 0.8051 mPa·s
298.15 K, 101.33 kPa, x2 = 0.2017 | 0.745 mPa·s
298.15 K, 101.33 kPa, x2 = 0.3053 | 0.6806 mPa·s
298.15 K, 101.33 kPa, x2 = 0.4073 | 0.6363 mPa·s
298.15 K, 101.33 kPa, x2 = 0.5076 | 0.5891 mPa·s
298.15 K, 101.33 kPa, x2 = 0.6069 | 0.5466 mPa·s
298.15 K, 101.33 kPa, x2 = 0.7083 | 0.4983 mPa·s
298.15 K, 101.33 kPa, x2 = 0.8023 | 0.4575 mPa·s
298.15 K, 101.33 kPa, x2 = 0.903 | 0.4242 mPa·s
303.11 K, 100 kPa, x2 = 0.77 | 0.4628 mPa·s and 0.4626 mPa·s
303.15 K, 101.3 kPa, x2 = 0.77 | 0.4628 mPa·s
303.17 K, 100 kPa, x2 = 0.49 | 0.5761 mPa·s and 0.5762 mPa·s
303.17 K, 101.3 kPa, x2 = 0.49 | 0.5761 mPa·s
313.11 K, 101.3 kPa, x2 = 0.49 | 0.5111 mPa·s
313.15 K, 100 kPa, x1 = 0.3 | 0.393 mPa·s
313.18 K, 101.3 kPa, x2 = 0.77 | 0.4127 mPa·s
323.15 K, 100 kPa, x2 = 0.49 | 0.4588 mPa·s
323.15 K, 101.3 kPa, x2 = 0.49 | 0.4588 mPa·s

CCCCCCCO + CCCCCCC
viscosity [mPa·s], 101.33 kPa
Details | 298.15 K | 303.15 K | 308.15 K | 313.15 K
x1 = 0.0373 | – | 0.402 | – | 0.3519
x1 = 0.0508 | 0.4239 | – | 0.3784 | –
x1 = 0.1004 | 0.4638 | – | 0.4111 | –
x1 = 0.104 | – | 0.469 | – | 0.4152
x1 = 0.1707 | – | 0.543 | – | 0.4918
x1 = 0.2012 | 0.5765 | – | 0.5039 | –
x1 = 0.2845 | – | 0.703 | – | 0.6087
x1 = 0.3013 | 0.7282 | – | 0.6241 | –
x1 = 0.4001 | 0.946 | – | 0.7914 | –
x1 = 0.4114 | – | 0.901 | – | 0.7971
x1 = 0.4992 | 1.243 | – | 1.023 | –
x1 = 0.5113 | – | 1.21 | – | 0.9558
x1 = 0.5981 | 1.702 | – | 1.346 | –
x1 = 0.62 | – | 1.671 | – | 1.318
x1 = 0.699 | 2.261 | – | 1.821 | –
x1 = 0.7301 | – | 2.236 | – | 1.681
x1 = 0.8089 | – | 2.801 | – | 2.082
x1 = 0.85 | 3.616 | – | 2.806 | –
x1 = 0.9029 | – | 3.742 | – | 2.728
x1 = 0.9456 | 4.749 | – | 3.608 | –
x1 = 0.9699 | – | 4.553 | – | 3.322

CCCCC + CCCCCCCC
Details | viscosity [mPa·s]
297.95 K, 101 kPa, x1 = 0.1048 | 0.4645
297.95 K, 101 kPa, x1 = 0.1992 | 0.4431
297.95 K, 101 kPa, x1 = 0.3044 | 0.4126
297.95 K, 101 kPa, x1 = 0.4015 | 0.3847
297.95 K, 101 kPa, x1 = 0.5066 | 0.3498
297.95 K, 101 kPa, x1 = 0.5998 | 0.3216
297.95 K, 101 kPa, x1 = 0.7095 | 0.2978
297.95 K, 101 kPa, x1 = 0.8097 | 0.2723
297.95 K, 101 kPa, x1 = 0.8946 | 0.2443
298.15 K, 101.33 kPa, x1 = 0.1059 | 0.4719
298.15 K, 101.33 kPa, x1 = 0.1973 | 0.4439
298.15 K, 101.33 kPa, x1 = 0.3019 | 0.4091
298.15 K, 101.33 kPa, x1 = 0.404 | 0.3806
298.15 K, 101.33 kPa, x1 = 0.5019 | 0.3545
298.15 K, 101.33 kPa, x1 = 0.6046 | 0.3228
298.15 K, 101.33 kPa, x1 = 0.7015 | 0.2963
298.15 K, 101.33 kPa, x1 = 0.8026 | 0.2702
298.15 K, 101.33 kPa, x1 = 0.9035 | 0.2454
313.05 K, 101 kPa, x1 = 0.1048 | 0.3939
313.05 K, 101 kPa, x1 = 0.1992 | 0.3894
313.05 K, 101 kPa, x1 = 0.3044 | 0.3676
313.05 K, 101 kPa, x1 = 0.4015 | 0.3504
313.05 K, 101 kPa, x1 = 0.5066 | 0.3205
313.05 K, 101 kPa, x1 = 0.5998 | 0.2816

CCCCC + CCCCCCCCC
298.15 K, 101.33 kPa
Details | viscosity [mPa·s]
x1 = 0.0925 | 0.611
x1 = 0.1995 | 0.5548
x1 = 0.308 | 0.5016
x1 = 0.403 | 0.4556
x1 = 0.4861 | 0.4179
x1 = 0.6016 | 0.3691
x1 = 0.702 | 0.3268
x1 = 0.8033 | 0.2892
x1 = 0.904 | 0.2538

C1CCCCCCC1 + CCCCCCCCCC
viscosity [mPa·s], 101 kPa
Details | x1 = 0.0657 | x1 = 0.1971 | x1 = 0.282 | x1 = 0.386 | x1 = 0.508 | x1 = 0.5849 | x1 = 0.7031 | x1 = 0.7984 | x1 = 0.9053
308.15 K | 0.7647 | 0.829 | 0.881 | 0.9331 | 1.026 | 1.093 | 1.213 | 1.345 | 1.55
313.15 K | 0.7178 | 0.7776 | 0.819 | 0.8631 | 0.9523 | 1.006 | 1.12 | 1.24 | 1.406

CCCCC + CCCCCCCCCC
viscosity [mPa·s]
Details | x1 = 0.1031 | x1 = 0.2082 | x1 = 0.3062 | x1 = 0.408 | x1 = 0.5061 | x1 = 0.6029 | x1 = 0.7058 | x1 = 0.804 | x1 = 0.9008
297.95 K, 101 kPa | 0.7711 | 0.6992 | 0.6136 | 0.5536 | 0.4708 | 0.4339 | 0.3667 | 0.32 | 0.2645
298.15 K, 101.33 kPa | 0.7775 | 0.6969 | 0.6169 | 0.5449 | 0.4818 | 0.4285 | 0.3626 | 0.3143 | 0.2671
313.05 K, 101 kPa | 0.6585 | 0.5949 | 0.5183 | 0.4627 | 0.4237 | 0.3644 | 0.3189 | 0.2801 | 0.2396
